Reference: PMC6272417, “Quercitrin, an Inhibitor of Sortase A, Interferes with the Adhesion of Staphylococcal aureus” (Molecules, 2015)

Columns and labels:
Conditions in all cases: read-out: Binding Constants KA (1 × 10^5) L.mol^-1 (converted)
Sortase A (SrtA) [1] = target: T1, Sortase A (SrtA) (Staphylococcus aureus, UniProt Q2FV99, G167A); test: fluorescence-quenching binding constant KA
T1 construct: SrtAΔN59 (residues 60-206)

Sortase A (SrtA) [2] = target: T2, Sortase A (SrtA) (Staphylococcus aureus, UniProt Q2FV99); test: fluorescence-quenching binding constant KA; also FRET inhibition of purified SrtAΔN59 (IC50 […])
T2 construct: SrtAΔN59 (residues 60-206)

Sortase A (SrtA) [3] = target: T3, Sortase A (SrtA) (Staphylococcus aureus, UniProt Q2FV99, V193A); test: fluorescence-quenching binding constant KA
T3 construct: SrtAΔN59 (residues 60-206)

For `C[C@@H]1O[C@@H](Oc2c(-c3ccc(O)c(O)c3)oc3cc(O)cc(O)c3c2=O)[C@H](O)[C@H](O)[C@H]1O` [QEN, Quercitrin], the Kd (Sortase A (SrtA) [1]) was 2700 nM, the Kd (Sortase A (SrtA) [2]) was 1450 nM and the Kd (Sortase A (SrtA) [3]) was 2380 nM.
